# Measured values: patent publication US20250042912A1, “NOVEL NON-FLUORINATED QUINOLONE COMPOUND AND USE THEREOF” (priority 2021, published 2025)
# How the values were obtained:
# [1] = test system: acne model mice (Propionibacterium acnes ATCC 6919 injected into the left ear); test: Acne model in mice: auricular thickness, redness and swelling of the left ear; type: in vivo, Balb/C mice
# Description: Experimental strain: Propionibacterium acnes ATCC 6919 (Beijing Biobw Biotechnology Co., Ltd.) Experimental animals: Balb/C mice (Zhejiang Vital River Laboratory Animal Technology Co., Ltd.) Balb/C mice were grouped and numbered, and adaptively fed for one week. On the day of modeling, Propionibacterium acnes was taken, and OD600 was measured using a microplate reader. BH1 culture medium was diluted to OD600=1 (about 5×10^8 CFU/mL), centrifuged to discard supernatant, and the remaining culture was diluted to 1×10^8 CFU/mL with PBS. Once the molding began, the mice were anesthetized with a small animal anesthesia machine, the air flow and isoflurane content of the anesthesia machine were adjusted, and the mice were placed in an anesthesia induction chamber for anesthesia induction. After there were no obvious signs of activity, the mice were taken out and their toes were clamped with tweezers or hemostatic forceps for toe pinching reaction testing, if there was no retraction pain response, the surgery could be performed. The anesthetized mice were placed on a mice plate and fixed, the air flow or isoflurane content was adjusted to maintain anesthesia (isoflurane anesthesia induction content of 3% to 4%, anesthesia maintenance content of 1% to 2%, and air flow rate of 300 mL/min to 500 mL/min). Blank control group: 20 μL of PBS was intracutaneously injected into the left ear of each mouse. Model group, drug group to be tested: 20 μL suspension of Propionibacterium acnes in PBS was intracutaneously injected into the left ear of each mouse. After the injection of Propionibacterium acnes, the mice in each group were administered according to the methods of administration and dosages described in Table 5 at 4 hours, 20 hours, 28 hours, and 44 hours. […] The drugs to be tested included Compound 6, Compound 7, and Compound 12, all of which were in a form of hydrochloride. In this experiment, Compound 6, Compound 7, and Compound 12 all referred to the corresponding hydrochloride drugs with a solvent of 40% DMSO+60% glycerol, the drugs were added into DMSO, heated to 100° C. in a water bath, and then glycerol was added thereto to obtain a bright yellow viscous solution. Administration area: Propionibacterium acnes was injected into the left ear. Administration time: the drugs were administrated at 4 hours, 20 hours, 28 hours, and 44 hours post-injection of Propionibacterium acnes, a total of 4 times. Balb/C mice were anesthetized with a small animal anesthesia machine and isoflurane in Compound 6 group, Compound 7 group, Compound 12 group, and model group. […] Auricular thickness measurement: after Propionibacterium acnes was injected for 48 hours, the auricular thicknesses of mice were measured with a vernier caliper.
# [2] = test system: Propionibacterium acnes ATCC 6919; test: Minimum inhibitory concentration (MIC) assay, Propionibacterium acnes ATCC 6919; type: cell-based; settings: Cutibacterium acnes, ATCC6919; anaerobic culture 35+/-2°C, 48 hours; read with naked eyes
# Description: (§1) On the day of the experiment, the compound in the flask was dissolved in 100% DMSO until the concentration of mother liquor was 0.4 mg/mL. If the mother liquor was not used on the same day, it was stored at −80° C. for future use. The compound mother liquor and standard antibiotics were subjected to 2-fold gradient dilution with corresponding solvents on a 96-microwell plate (V-bottom) to obtain 100× working solutions (Well 1 to Well 7) in sequence. Among them, the concentrations of the compound were 400 μg/mL, 200 μg/mL, 100 μg/mL, 50 μg/mL, 25 μg/mL, 12.5 μg/mL, 6.25 μg/mL, and 3.125 μg/mL. 100% DMSO was used as growth control (Well 8). As such, the compound motherplate was obtained. Two days before the experiment, anaerobic bacteria (Propionibacterium acnes) stored in a cryogenic tube at −80° C. were scribed on an MBA (Brucella Agar+5% (v/v) defibrillated sheep blood+[…] Hemin+1 μg/mLVitamin K1) plate. The anaerobic bacteria were placed in a 35+/−2° C. anaerobic incubator for 42-48 hours of cultivation. On the day of the experiment, the plate was taken out, clones were picked from the plate and suspended in physiological saline. Then, the turbidity of the bacterial suspension (containing 1.0-2.0×10^8 CFU/mL) was adjusted to OD600=0.2 by a turbidity meter. Then, the adjusted bacterial suspension was diluted to an appropriate concentration with the assay culture medium: about 5×10^5 CFU/mL for aerobic bacteria, and about 1×10^6 CFU/mL for anaerobic bacteria. As such, the inoculating solution was obtained. […] Therefore, the final assay concentrations of the compound were 4 μg/mL, 2 μg/mL, 1 μg/mL, 0.5 μg/mL, 0.25 μg/mL, 0.125 μg/mL, 0.06 μg/mL and 0.03 μg/mL. The total volume of each well on the assay plate was 200 μL: containing 1% DMSO, about 5×10^5 CFU/mL of aerobic bacteria and about 1×10^6 CFU/mL of anaerobic bacteria. All assay plates for aerobic bacteria were aerobically cultured at 35+/−2° C. for 16 to 20 hours, and all assay plates for anaerobic bacteria were anaerobically cultured in an anaerobic incubator at 35+/−2° C. for 48 hours. Note: for anaerobic bacteria, both the preparation of bacterial solution in step 2 and the inoculation of bacterial solution in step 3 were operated in an anaerobic workstation.
# [3] = test system: Propionibacterium acnes ATCC 11827; test: Minimum inhibitory concentration (MIC) assay, Propionibacterium acnes ATCC 11827; type: cell-based; settings: Cutibacterium acnes, ATCC11827; anaerobic culture 35+/-2°C, 48 hours; read with naked eyes
# Description: as §1
smiles,measurement,setting,value
CN(C)c1cc2c(cn1)-c1ccc3c(=O)c(C(=O)O)cn(C4CC4)c3c1COC2 [Compound 6],redness and swelling on the left ears of mice,"[1]; Balb/C mice acne model, macroscopic, after treatment, drugs as hydrochloride, in words",reduced to varying degrees
same,Auricular thickness (% of Blank) Mean ± SD,"[1]; Balb/C mice, left ear, 48 hours after injection of Propionibacterium acnes, 15 μL applied at 4, 20, 28, 44 hours, drugs as hydrochloride",112.71 ± 17.19 % of Blank
same,Auricular thickness Mean ± SD,"[1]; Balb/C mice, left ear, 48 hours after injection of Propionibacterium acnes, 15 μL applied at 4, 20, 28, 44 hours, drugs as hydrochloride in 40% DMSO+60% glycerol",0.51 ± 0.08 mm
same,auricular thicknesses of the left ears of mice after treatment,"[1]; compared with acne model group, p<0.05, in words",significantly reduced
same,MIC,[2],0.03 µg/mL
same,MIC,[3],0.03 µg/mL
